In US20240299406A1, “NEURONAL NICOTINIC ACETYLCHOLINE RECEPTOR PARTIAL AGONISTS AS THERAPEUTICS FOR CHRONIC TINNITUS” (Board of Trustees of Southern Illinois University, priority 2019, published 2024):
“Also recorded” adds a separate entry of the source.

Legend:
[1] = system: rats with behavioral evidence of tinnitus; experiment: operant conditioned-suppression behavioral test for tinnitus (suppression ratio, 20 kHz test series); type: in vivo, Long Evans rats; conditions: for evidence of tinnitus: SC injection
Description: Unilaterally sound-exposed animals were used to study the effects of sazetidine on tinnitus. Experiments used an established behavioral psychoacoustic test to determine whether sazetidine could ameliorate tinnitus in subjects (rats) with behavioral evidence of tinnitus. Three months following sound-exposure, animals with tinnitus show consistent difficulty identifying silence. Sounds of varying intensity/levels were presented to sound-exposed (tinnitus) and unexposed (non-tinnitus control) subjects. The animals' behavior, quantified as a suppression ratio, indicated their level of tinnitus. Greater suppression, i.e., a decrease in lever pressing, indicates the presence of tinnitus.
The present study examined the potential therapeutic effect of sazetidine and varenicline to ameliorate tinnitus in rats with behavioral evidence of tinnitus. For two decades, an operant-behavior model has been used to investigate tinnitus pathology. In this model, animals are taught to attend closely to their auditory sensations using a conditioned suppression procedure: Animals lever press for food pellets in the presence of low-level background sounds, randomly punctuated by sound-off (silence) periods. Sound-off (silence) lever pressing earns food pellets but leads to a mild foot shock at the conclusion of the sound off presentation. The animals are therefore conditioned to stop lever pressing when the external sound is off, i.e., conditioned suppression. In this paradigm, the animals are conditioned to attend to their sound environment, and when tones of different frequencies and levels/intensities are substituted for some of the sound-off periods, the attendant behavior can be used to derive psychometric functions indicative of tinnitus.
Sixteen, 96-day old Long Evans rats (Envigo, Indianapolis, IN, USA) were anesthetized with a 1.7 percent isoflurane/02 mixture, placed in a head holder. A Fostex speaker (FT17H, Akashima, Japan) was attached to a 2 cm length of flexible tubing positioned at the entrance of the right ear canal. Eight randomly selected rats were unilaterally exposed once to band-limited noise for 1 hr, with a peak level of 120 dB (SPL) centered at 16 kHz, falling to ambient levels at 8 kHz and 24 kHz. During sound-exposure, the contralateral canal was obstructed by a canal-fitted plastic plug/tube from the contralateral speaker. Auditory brainstem responses (ABRs), which measure hearing, were obtained before and after exposure for pure tones at 8, 10, 12, 16, 20, 24, and 32 kHz, presented in 10 dB decrements between 95 and 5 dB (SPL re […]). Eight unexposed animals were similarly tested. Tinnitus testing began 3 months following sound-exposure and hearing-level determination.
Sazetidine A dihydrochloride (batch 2A/187725) was obtained in solid form, from Tocris Bioscience (Minneapolis, MN, USA). The drug was dissolved in sterile normal saline at a concentration of 2 mg/ml, or less, and administered as a subcutaneous injection (SC) 1 hour prior to behavioral testing.
Varenicline, varenicline tartrate, was purchased from Santa Cruz Biotechnology, Inc. (Dallas, Texas, USA). The drug was dissolved in sterile normal saline at a concentration of 1 mg/ml, or less, and administered as a SC injection 1 hour prior to behavioral testing.
(§1) Sterile normal saline was considered a pharmaceutically acceptable carrier, but other pharmaceutically acceptable carriers may also be used as a substitute. All animals, unexposed controls and sound-exposed, were drug treated and tested in parallel. […] Dose levels of 0.1, 0.5, and 1 mg/kg were tested for therapeutic effect, over a minimum of 3 consecutive days for each dose level. Washout periods of 1 to 5 weeks (5 test sessions per week) intervened between drug-testing, as required to recover pre-drug baseline tinnitus performance.
Prior to the start of drug testing, each group was optimized to five rats per group. […]

[2] = non-specific drug effects (cage observation, session lever pressing); type: in vivo, rats
Protocol: FIG. 10 illustrates the data for a non-specific effect. The non-specific effects appeared 10 to 15 min after treatment but were not present 1 hr after treatment, i.e., at the beginning of the test period.
as §1
At 1 mg/kg. […] Within 10 min of drug treatment all animals assumed a prone resting position in their home cage, which lasted about 10 min. Afterward animals resumed normal cage activity, e.g., moving about, grooming, sniffing. […] This behavior was not observed in washout or saline (vehicle) sessions, nor was it observed in the remaining 15 animals. Mild sedation was indicated by a decrease in total bar pressing at 1.0 mg/kg (FIG. 10).

α4β2 nAChRs = α4β2 nAChRs (Homo sapiens, UniProt P17787+P43681); conditions: cited from earlier work; for affinity for β2-containing nAChRs: partial nAChR agonists
α3β4 nAChRs [3] = biological target: T1, α3β4 nAChRs (Homo sapiens, UniProt P30926+P32297); conditions: cited from earlier work
α7 nAChRs [4] = biological target: T2, α7 nAChRs (Homo sapiens, UniProt P36544); conditions: cited from earlier work
α3β4 nAChRs [5] = biological target: T1, α3β4 nAChRs; conditions: at lower affinity; cited from earlier work
[6] = system: rats with behavioral evidence of tinnitus; experiment: operant conditioned-suppression behavioral test for tinnitus (suppression ratio, 20 kHz test series); type: in vivo, Long Evans rats; conditions: 0.5 mg/kg; 12 animals with tinnitus compared to 8 unexposed controls
α7 nAChRs [7] = biological target: T2, α7 nAChRs; conditions: cited from earlier work; remark: listed apart in the source

T1 sequence (P32297 32-505): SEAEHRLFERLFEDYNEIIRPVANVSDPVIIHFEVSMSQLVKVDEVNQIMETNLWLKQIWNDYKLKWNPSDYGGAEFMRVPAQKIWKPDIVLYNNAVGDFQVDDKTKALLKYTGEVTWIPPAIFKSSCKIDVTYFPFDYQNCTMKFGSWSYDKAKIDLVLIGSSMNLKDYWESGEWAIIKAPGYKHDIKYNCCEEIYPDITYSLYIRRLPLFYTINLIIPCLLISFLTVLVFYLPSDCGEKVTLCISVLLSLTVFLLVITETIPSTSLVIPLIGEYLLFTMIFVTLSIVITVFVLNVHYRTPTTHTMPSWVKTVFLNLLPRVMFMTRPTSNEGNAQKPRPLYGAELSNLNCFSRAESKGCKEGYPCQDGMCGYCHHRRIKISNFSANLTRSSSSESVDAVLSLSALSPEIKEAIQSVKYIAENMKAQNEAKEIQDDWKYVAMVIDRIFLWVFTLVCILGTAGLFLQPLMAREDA
T1 sequence (P30926 22-498): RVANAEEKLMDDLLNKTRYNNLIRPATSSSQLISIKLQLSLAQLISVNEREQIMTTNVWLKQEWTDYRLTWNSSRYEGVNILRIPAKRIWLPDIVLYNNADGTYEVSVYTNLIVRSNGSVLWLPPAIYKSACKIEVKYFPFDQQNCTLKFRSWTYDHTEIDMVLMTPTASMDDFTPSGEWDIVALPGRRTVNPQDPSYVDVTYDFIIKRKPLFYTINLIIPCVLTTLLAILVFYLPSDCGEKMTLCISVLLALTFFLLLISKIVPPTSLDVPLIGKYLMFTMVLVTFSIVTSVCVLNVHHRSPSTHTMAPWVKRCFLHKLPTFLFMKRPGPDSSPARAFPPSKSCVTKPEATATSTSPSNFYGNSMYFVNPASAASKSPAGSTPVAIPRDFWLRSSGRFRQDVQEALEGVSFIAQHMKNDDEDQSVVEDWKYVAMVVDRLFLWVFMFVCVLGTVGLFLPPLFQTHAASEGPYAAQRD
Sequence of α4β2 nAChRs (P43681 29-627 limits assumed): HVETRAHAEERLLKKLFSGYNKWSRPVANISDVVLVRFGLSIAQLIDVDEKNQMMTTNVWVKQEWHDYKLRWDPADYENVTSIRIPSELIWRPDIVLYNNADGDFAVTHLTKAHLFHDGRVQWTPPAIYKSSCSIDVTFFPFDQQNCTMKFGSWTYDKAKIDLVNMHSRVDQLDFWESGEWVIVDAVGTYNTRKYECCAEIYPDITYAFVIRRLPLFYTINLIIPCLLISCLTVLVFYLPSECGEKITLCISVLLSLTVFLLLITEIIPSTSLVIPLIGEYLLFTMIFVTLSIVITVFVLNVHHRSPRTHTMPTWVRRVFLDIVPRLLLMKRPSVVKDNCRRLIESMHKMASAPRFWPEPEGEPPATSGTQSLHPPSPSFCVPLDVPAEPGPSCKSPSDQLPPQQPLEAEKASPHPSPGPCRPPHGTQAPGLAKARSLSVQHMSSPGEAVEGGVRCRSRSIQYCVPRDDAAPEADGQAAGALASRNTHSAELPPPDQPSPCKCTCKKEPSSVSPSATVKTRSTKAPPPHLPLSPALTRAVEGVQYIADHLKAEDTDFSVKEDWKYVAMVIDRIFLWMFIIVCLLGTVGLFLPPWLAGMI
Sequence of α4β2 nAChRs (P17787 26-502): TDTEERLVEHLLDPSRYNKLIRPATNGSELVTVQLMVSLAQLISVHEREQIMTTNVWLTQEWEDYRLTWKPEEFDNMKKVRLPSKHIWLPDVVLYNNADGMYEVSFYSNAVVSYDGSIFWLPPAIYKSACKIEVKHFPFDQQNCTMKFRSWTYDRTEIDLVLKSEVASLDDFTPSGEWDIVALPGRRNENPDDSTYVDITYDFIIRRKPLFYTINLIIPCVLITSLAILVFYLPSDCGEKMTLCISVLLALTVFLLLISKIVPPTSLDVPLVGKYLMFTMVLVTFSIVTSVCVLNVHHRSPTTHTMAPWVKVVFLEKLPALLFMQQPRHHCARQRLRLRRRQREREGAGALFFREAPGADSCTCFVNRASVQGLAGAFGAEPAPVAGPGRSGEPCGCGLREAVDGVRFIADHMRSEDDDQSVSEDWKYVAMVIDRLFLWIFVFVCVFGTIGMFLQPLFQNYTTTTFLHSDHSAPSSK
T2 sequence (P36544 23-502): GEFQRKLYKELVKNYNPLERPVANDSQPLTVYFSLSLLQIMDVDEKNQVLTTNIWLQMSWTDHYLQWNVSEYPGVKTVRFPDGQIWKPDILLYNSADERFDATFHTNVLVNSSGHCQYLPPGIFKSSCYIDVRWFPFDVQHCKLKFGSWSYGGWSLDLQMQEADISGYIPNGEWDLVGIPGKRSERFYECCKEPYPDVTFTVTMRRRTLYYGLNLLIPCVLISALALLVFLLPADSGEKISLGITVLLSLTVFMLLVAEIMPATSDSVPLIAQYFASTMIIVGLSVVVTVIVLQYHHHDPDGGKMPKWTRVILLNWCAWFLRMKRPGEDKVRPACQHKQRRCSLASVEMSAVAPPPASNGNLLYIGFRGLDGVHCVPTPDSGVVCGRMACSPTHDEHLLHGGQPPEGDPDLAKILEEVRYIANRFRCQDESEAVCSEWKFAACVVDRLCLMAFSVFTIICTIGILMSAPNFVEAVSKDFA

OCCCCC#Cc1cncc(OC[C@@H]2CCN2)c1 [sazetidine]
therapeutic effect on tinnitus ([1]; 0.1 mg/kg SC, FIG. 9): potentially weak therapeutic effect
tinnitus dose-response (tinnitus suppression ratio) ([1]; 0.1 mg/kg to 1.0 mg/kg SC, FIG. 11): Therapeutic effect increased with dose; also recorded: effectiveness increases as the dose is increased
suppression curve of tinnitus animals versus unexposed control animals ([1]; 0.5 mg/kg SC, FIG. 8): no longer significantly different
suppression curve of tinnitus animals versus unexposed control animals ([1]; 1 mg/kg SC, first test, FIG. 2): no longer significantly different
suppression curve of tinnitus animals versus unexposed control animals ([1]; 1 mg/kg SC, second test (1st replication), FIG. 5): again no longer significantly different
therapeutic effect on tinnitus ([1]; 1 mg/kg SC, third test (2nd replication), one week after 1st replication, FIG. 6): No therapeutic effect was observed
evidence of tinnitus ([1]; 0.1 mg/kg): significantly reduced evidence of tinnitus
evidence of tinnitus ([1]; 0.5 mg/kg): effectively and significantly decreased evidence of tinnitus
evidence of tinnitus ([1]; 1 mg/kg): effectively and significantly decreased evidence of tinnitus
dose level at which statistical effectiveness begins ([1]; SC, FIG. 11): about 0.5 mg/kg
suppression curve of tinnitus animals versus unexposed control animals ([1]; five weeks following initial treatment, saline SC before test, FIG. 4): again statistically significantly different
suppression curve of tinnitus animals versus unexposed control animals ([1]; one week following initial treatment, washout, FIG. 3): remain similar to control
tinnitus-related symptoms/lever pressing ([1]; treatment 1 hour before testing): decreased tinnitus-related symptoms/lever pressing
sedation (decrease in total bar pressing) ([2]; 1.0 mg/kg, FIG. 10): Mild sedation
excess salivation, share of animals ([2]; 1.0 mg/kg, visual evidence): about a third of the animals
non-specific effects at the beginning of the test period ([2]; 1 hr after treatment, FIG. 10): not present
non-specific drug effects ([2]; FIG. 10): evident at 1 mg/kg
time of appearance of non-specific effects after treatment ([2]; FIG. 10): 10 to 15 min
time to prone resting position in home cage, all animals ([2]; after drug treatment): ≤ 10 min
sedation (decrease in session lever pressing) ([2]; higher doses, FIG. 10): some general sedation
duration of prone resting position ([2]; rat, in vivo): about 10 min
drug-dependent agitation, animals affected ([2]; sound-exposed animal without evidence of tinnitus): One animal (out of 16)
concentration that desensitizes α4β2 nAChRs (α4β2 nAChRs): low nanomolar concentrations
affinity for β2-containing nAChRs (α4β2 nAChRs): very high affinity
selectivity for α4β2 nAChRs compared to α3β4 nAChRs (α3β4 nAChRs [3]): > 20,000 fold
selectivity for α4β2 nAChRs relative to α7 nAChRs (α7 nAChRs [4]): 3,500 fold

c1cnc2cc3c(cc2n1)C1CNCC3C1 [varenicline, 7,8,9,10-tetrahydro-6,10-methano-6H-pyrazino[2,3-h][3]-benzazepine]
type of action at α3β4 nAChRs (α3β4 nAChRs [5]): partial agonist actions
suppression curve of tinnitus animals versus unexposed control animals ([1]; 0.5 mg/kg SC, FIG. 13): no longer significantly different
linearity of tinnitus reduction across doses ([1]; doses between 0.1 and 1.0 mg/kg): not-linear
reduction of evidence of tinnitus [6]: 47%
concentration that desensitizes α4β2 nAChRs (α4β2 nAChRs): low nanomolar concentrations
affinity for β2-containing nAChRs (α4β2 nAChRs): very high affinity
selectivity for α4β2 nAChRs compared to α3β4 nAChRs (α3β4 nAChRs [3]): 4,000-5,000 fold
selectivity for α4β2 nAChRs relative to α7 nAChRs (α7 nAChRs [4]): 4,000-5,000 fold
type of action at α7 nAChRs (α7 nAChRs [7]): full agonist activity
